Experimental data published in PMC12373846, “Hemoglobin as a pseudoperoxidase and drug target for oxidative stress-related diseases” (Signal Transduction and Targeted Therapy, 2025).

What was measured:
[1] = ROS-Glo H2O2 assay without HRP or Hb; assay type: biochemical; conditions: ROS-Glo assay lacking HRP/Hb
Procedure: Hb (Sigma‒Aldrich, H7379), H2O2 (Sigma‒Aldrich, H1009), and Amplex Red reagents (Invitrogen, A12222) were obtained for the study. A 4 μM H2O2 solution was prepared in 50 mM sodium phosphate buffer (pH 7.2). Then, 49 μl of this mixture was mixed with 1 μl of the test compound in DMSO or distilled water. The mixture was combined with an assay mixture of Amplex Red reagent (20 mM stock to 0.1 mM) and HRP (200 U/ml stock to 0.2 U/ml) and added to the wells at 50 μl/well. After a 60-min incubation at 37 °C, resorufin production was quantified via a microplate fluorescence reader (SpectraMax iD5, Molecular Devices) at ex/em = 535/580 nm. The H2O2-decomposing activity was estimated via the following equation: (sample fluorescence-blank fluorescence)/(control […]-blank fluorescence) × 100. For the ROS-Glo assay, the H2O2 substrate solution and ROS-Glo detection solution were prepared according to the manufacturer’s instructions. 10 μM H2O2 and drugs were prepared as in the Amplex Red assay, with HRP, Hb, CAT, or GPx added as needed. The mixture was added to the wells at 100 μl/well and incubated for 60 min at 37 °C. H2O2 substrate solution was added, and the mixture was incubated at room temperature for 30 min. After the H2O2 substrate solution was added and incubated at room temperature for 30 min, the ROS-Glo detection solution was added, and the mixture was incubated for 15 min. Luminescence was measured via iD5 microplate readers. The H2O2-decomposing activity was estimated via the following equation: (sample luminescence-blank luminescence)/(control luminescence-blank luminescence) × 100. The U/ml was calculated on the basis of the amount of H2O2 reduced by Hb during the reaction, using μg/ml and U/mg.

[2] = tested on: APP/PS1 mice; assay: Immunohistochemistry of hippocampus, APP/PS1 mice; assay type: in vivo, mouse; conditions: 3 mg/kg/day i.p.
Procedure: (§1) For an animal model of AD, both sexes of 10- to 18-month-old APP/PS1 mice were maintained and used as previously described.[76],[77] To test the effects of novel H2O2-decomposing enhancers in the AD model, the mice were treated by i.p. injection with KDS12008 (3 mg/kg/day), KDS12017 (3 mg/kg/day), or KDS12025 (3 or 10 mg/kg/day) once per day for 1 or 2 weeks, depending on the experimental protocol. All drugs were dissolved in 200 μl of saline, and the amount of each drug was calculated on the basis of the weight (kg) of the mouse. Moreover, KDS12025 (3 mg/kg/day) was orally administered to the AD model for 2 weeks ad libitum.
The mice were deeply anesthetized with vaporized 1% isoflurane and placed into stereotaxic frames (RWD Life Science, China). Following an incision on the midline of the scalp, a hole was drilled into the skull above the hippocampus. AAV-GFAP104-GFP or AAV-GFAP104-DTR-GFP was bilaterally microinjected into the hippocampal CA1 region (AP, −2.0 mm; ML, ±1.5 mm; DV, −1.65 mm from the bregma). Diphtheria toxin (2 mg/ml) was administered for 16 days as previously described.[77] For shRNA knockdown, AAV-pSicoR-Hbβ-shRNA-mCherry or AAV-pSicoR-Sc-shRNA-mCherry was microinjected into the same coordinate system. A total of 0.8 µl of the virus was injected via a syringe pump (KD Scientific, USA). The injection procedures were implemented before 5 weeks of the experiments. For cell type-specific knockdown, AAV-pSico-Hbβ-shRNA-GFP or AAV-pSico-Sc-shRNA-GFP was combined with either AAV-CaMKII-Cre-mCherry for neuronal targeting or AAV-GFAP-Cre-mCherry for astrocyte targeting. The viruses were bilaterally injected into the hippocampus and substantia nigra via the same stereotaxic coordinates and injection procedures. All viruses used in this study were produced at the Institute for Basic Science virus facility (IBS virus facility, Korea). To investigate the effects of 0.1 mg/kg/day KDS12025, GiD mice were injected with diphtheria toxin (2 mg/ml) daily for 16 days. Concurrently, KDS12025 was administered ad libitum (0.1 mg/kg/day) during the same period.
The mice were deeply anesthetized with 2% isoflurane and positioned on the operating table. After the abdomen was opened and the heart was exposed, the […] were perfused with saline, followed by 4% paraformaldehyde (PFA) in 0.1 M PBS. The mice were decapitated, and the brains were excised from the skull. Excised brains were postfixed in 4% PFA overnight at 4 °C and dehydrated in 30% sucrose for 48 h. Coronal hippocampal sections were cut at 30 µm thickness with a cryostat and stored in storage solution. For the ALS experiments, lumbar spinal cords (L2–L5) were also carefully dissected and immediately immersed in 4% PFA for postfixation. The sections were fully washed in 0.1 M PBS and incubated for 1 h in blocking solution (0.3% Triton X-100, 2% donkey and goat serum in 0.1 M PBS). Next, a mixture of primary antibodies in the blocking solution was used for immunostaining on a shaker overnight at 4 °C. The sections were washed in PBS three times. After washing, the sections were incubated with the corresponding fluorescent secondary antibodies for 1 h at RT. DAPI staining was performed by adding a DAPI solution (1:2000) during the second washing step. After the washing step was complete, the sections were mounted on cover slides with mounting medium. A series of fluorescence images were obtained with an LSM900 (Zeiss, Germany) confocal microscope or Lattice SIM Elyra 7 (Zeiss, Germany). The 15–22 μm Z stack images in 1–2 μm steps were processed for image analysis, which was performed via the ImageJ (NIH, US) and ZEN digital imaging for light microscopy blue system (Zeiss, Germany) programs.

[3] = tested on: APP/PS1 mice; assay: Passive avoidance test, APP/PS1 mice; assay type: in vivo, mouse; conditions: 3 mg/kg/day i.p., 16 times, Fig. S10b
Procedure: as §1
Sufficiently handled mice were ready before the PAT. The mice were placed in a two-compartment (light and dark) shuttle chamber with a shock generator (Ugo Basile, Italy). On the first day, the mice were placed in the light compartment for acquisition. The mice were allowed to explore the light compartment for 60 s, after which the door separating the light and dark compartments was raised to allow the mice to enter the dark compartment. When the mice entered the dark compartment, the separating door was closed immediately, and an electrical foot shock (0.5 mA, 2 s duration) was delivered through the floor grid. The mice were then moved back to the home cage, and the retention trial was conducted 24 h after the acquisition. On the second day, the mice were again placed in the light compartment for the retention trial. After 60 s, the door was raised to allow the mice to enter the dark compartment. The latency to step through the dark compartment before and after the electric shock was recorded for up to 540 s.

CNc1ccc(NCCc2ccc(C(F)(F)F)cc2)cc1.Cl [KDS12017, N^1-methyl-N^4-(4-(trifluoromethyl)phenethyl)benzene-1,4-diamine hydrochloride salt]
H2O2-decomposing activity without HRP or Hb [1]: neither KDS12017 nor KDS12025 degrades H2O2 without Hb | mean intensity of Iba1 in the hippocampus ([2]; Fig. S10e): 1556±53.65 | mean intensity of GFAP in the hippocampus ([2]; Fig. S10d): 1711±145.9 | PAT transfer latency, acquisition [3]: 71.53±23.24 | PAT transfer latency, retrieval [3]: 305.6±137.5
